# Results: patent US5098933A, “Pharmaceutically useful Michael addition products of unsaturated aldehydes and ketones and ascorbic acid” (Theracel Corporation, priority 1990, dated 1992)
# Key:
# [1] = test system: splenic lymphocytes; experiment: Immunomodulation panel: lymphocyte blastogenesis (Con-A, PHA, PWM); format: in vivo, C57BL/6J mice; conditions: 100 mg/kg i.p.
# [2] = test system: immune system; experiment: Tests to establish immunomodulatory properties (overall statement); format: in vivo; conditions: normal antigen stimulated mice
# Experimental: The following tests were conducted on various compounds within the scope of this invention to establish their immunodmodulatory properties. […] Conversely, at higher dosage levels, e.g. about 200 to 600 mg/kg body weight they function as immunoinhibitors.
# The tests used to establish immunostimulation were:
# [3] = test system: splenic lymphocytes; experiment: Immunotoxicity--Multi-dose: lymphocyte blastogenesis / stimulation (PHA, Con A, PWM); format: in vivo, mice
# Experimental: The immunotoxicological potential of KCPBL was evaluated in this experiment in which the study drug was administered to CD-1 mice for fourteen days (100 or 1000 mg/kg/day), either perorally (by gavage) or intravenously (tail vein). On the fifteenth day, the mice were weighed and sacrificed. The spleen, lungs, liver, kidneys and thymus were removed from each animal, fixed in formalin and histopathologically evaluated. In addition, a differential white blood cell count was obtained for a peripheral blood sample as well as the following tests performed: spleen cell counts (performed with Coulter Counter) and lymphocyte stimulation assays using PHA, CON-A and PWM techniques.
# […] Mice were administered KCPBL daily for a total of fourteen days via the oral (0.2 ml of a 147.5 mg/ml solution or a 29.5 mg/ml solution by gavage) and intravenous route (0.2 ml of 147.5 mg/ml solution or a 29.5 mg/ml solution by tail vein) to achieve a dose of 100 or 1000 mg/kg, respectively. The test dose was prepared fresh daily and dissolved in sterile non-pyrogenic saline. On the fifteenth day the mice were weighed, sacrificed, and the spleens, lungs, livers, kidneys and thymuses removed. These organs were weighed and, except for the spleens, the formalin-fixed organs were analyzed by a veterinary pathologist. Only two randomly-selected sets of animal organs per treatment group were histopathologically evaluated since the remaining three animals were used to isolate splenic lymphocytes for use in cellular immunoassays.
# A leukocyte differential was obtained on peripheral blood samples and spleen cell counts (performed with Coulter Counter), and an IL-2 induction assessment as well as standard lymphocyte stimulation assays using PHA, CON-A and PWM conducted.
# The individual spleens of three mice from control and test groups were processed to isolate lymphocytes and the protocols for lymphocyte blastogenesis, IL-2 induction and assay were performed. The remaining two mice in each group were sacrificed and their lungs, liver, kidney, and spleen were fixed in formalin and sent to AnMed Biosafe for histopathologic examination.
# [4] = Pharmacokinetics of 3H-KCPBL in mice, plasma levels; format: in vivo; conditions: intravenous, mouse, through 6 hours
# Experimental: The objectives of these tests were to evaluate the pharmacokinetics of radiolabeled KCPBL when administered either perorally or intravenously to mice.
# 3H-KCPBL was prepared from the pure drug substance KCPBL by an exchange procedure using high specific activity tritiated water. The product was purified by reverse phase high performance liquid chromatography and then freeze-dried. Analysis was carried out on ^3 H-KCPBL reconstituted in water. Specific activity was not less than 185 GBg/mmol or 5 Ci/mmol and the molecular weight of the product is 258. HPLC analysis for purity was performed using a Zorbax C8 column (25 cm×4.6) eluting with water: acetonitrile (930:70).
# In the mouse studies, 3H-KCPBL was dissolved in sterile pyrogen-free saline containing […] of non-radiolabeled KCPBL. The final concentration of the test article in an injection volume of 0.1 ml was 66.6 mcCi. One tenth ml was administered intravenously for plasma level and tissue biodistribution studies. Peroral dosages were prepared in a manner consistent with this approach.
# Mice were given intravenous doses of 3H-KCPBL to evaluate its biodistribution in this laboratory animal model.
smiles,measurement,setting,value
O=C1CCC(C2(O)C(=O)OC3C(O)COC32O)C1 (stereo not drawn) [KCPBL],"Lymphocyte Blastogenesis, PHA",[1],5849 ± 1227 Counts per minute
same,"Lymphocyte Blastogenesis, RPMI",[1],83 ± 35 Counts per minute
same,immunostimulatory activity on T-helper (Th) mediated lymphocyte functions,[2],demonstrated an immunostimulatory activity on T-helper (Th) mediated lymphocyte functions
same,"Lymphocyte Blastogenesis, Con A",[3]; 100 mg/kg IV (group 5),17292 ± 3202
same,"Lymphocyte Blastogenesis, PHA",[3]; 100 mg/kg IV (group 5),8513 ± 3950
same,"Lymphocyte Blastogenesis, PWM",[3]; 100 mg/kg IV (group 5),7125 ± 3899
same,"Lymphocyte Blastogenesis, RPMI",[3]; 100 mg/kg IV (group 5),234 ± 116
same,"Lymphocyte Blastogenesis, Con A",[3]; 100 mg/kg P.O. (group 4),18948 ± 3543
same,"Lymphocyte Blastogenesis, PHA",[3]; 100 mg/kg P.O. (group 4),13432 ± 4075
same,"Lymphocyte Blastogenesis, PWM",[3]; 100 mg/kg P.O. (group 4),6733 ± 1181
same,"Lymphocyte Blastogenesis, RPMI",[3]; 100 mg/kg P.O. (group 4),307 ± 52
same,"Lymphocyte Blastogenesis, Con A",[3]; 1000 mg/kg IV (group 3),14471 ± 2913
same,"Lymphocyte Blastogenesis, PHA",[3]; 1000 mg/kg IV (group 3),4473 ± 1181
same,"Lymphocyte Blastogenesis, PWM",[3]; 1000 mg/kg IV (group 3),4402 ± 3641
same,"Lymphocyte Blastogenesis, RPMI",[3]; 1000 mg/kg IV (group 3),203 ± 122
same,"Lymphocyte Blastogenesis, Con A",[3]; 1000 mg/kg P.O. (group 2),15151 ± 627
same,"Lymphocyte Blastogenesis, PHA",[3]; 1000 mg/kg P.O. (group 2),8189 ± 1602
same,"Lymphocyte Blastogenesis, PWM",[3]; 1000 mg/kg P.O. (group 2),4896 ± 1547
same,"Lymphocyte Blastogenesis, RPMI",[3]; 1000 mg/kg P.O. (group 2),244 ± 97
same,"LSA response to PHA, CON-A and PWM lectins",[3]; treated vs sham-injected controls,comparable
same,serum level profile,[4],immediate peak serum drug level followed by a steep decline
